Tests used:
5-HT1A receptor [1] = target: T1, 5-HT1A receptor (Rattus norvegicus, UniProt P19327); test: radioligand displacement of [3H]-8-OH-DPAT, single dose […]
T1 construct: gene Htr1a; rat cerebral cortex membranes
T1 sequence (P19327 1-422): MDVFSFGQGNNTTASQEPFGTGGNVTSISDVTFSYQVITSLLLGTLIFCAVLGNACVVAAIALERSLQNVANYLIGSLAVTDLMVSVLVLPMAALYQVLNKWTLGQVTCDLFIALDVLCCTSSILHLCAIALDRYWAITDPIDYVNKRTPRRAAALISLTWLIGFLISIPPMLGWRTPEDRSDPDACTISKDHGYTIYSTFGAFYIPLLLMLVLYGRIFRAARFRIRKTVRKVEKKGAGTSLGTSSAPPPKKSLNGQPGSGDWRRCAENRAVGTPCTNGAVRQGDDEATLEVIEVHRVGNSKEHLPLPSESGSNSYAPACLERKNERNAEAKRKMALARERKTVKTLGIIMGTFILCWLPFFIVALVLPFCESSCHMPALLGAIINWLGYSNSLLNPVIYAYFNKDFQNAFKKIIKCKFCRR

5-HT1A receptor [2] = target: T1, 5-HT1A receptor; test: radioligand displacement of [3H]-8-OH-DPAT, dose-response; format: binding

SMILES | inhibition at 1 µM (5-HT1A receptor [1]) | Ki (5-HT1A receptor [2])
COc1ccccc1N1CCN(CCC(=O)c2cc3ccccc3s2)CC1 [7d, 3-[4-(2-Methoxyphenyl)piperazin-1-yl]-1-(benzo[b]thiophen-2-yl)-1-propanone] | 52 ± 7% | 
O=C(CCN1CCN(c2ccccn2)CC1)c1cc2ccccc2s1 [7e, 1-(benzo[b]thiophen-2-yl)-3-(4-(pyridin-2-yl)piperazin-1-yl)propan-1-one] |  | 2.3 µM

Reference: PMC6268179, “Synthesis, Docking Studies and Biological Evaluation of Benzo[b]thiophen-2-yl-3-(4-arylpiperazin-1-yl)-propan-1-one Derivatives on 5-HT1A Serotonin Receptors” (Molecules, 2012)
